# According to ChEMBL document CHEMBL3885881, “DrugMatrix”:
# Species: Rattus norvegicus
# Test: DrugMatrix - Regimen: Daily Repeat
# Type: toxicity, organism-based, Sprague-Dawley
# Set-up: regimen Daily Repeat, gender Male, age 6-8 weeks
# Conditions: in vivo, sc, route subcutaneous, […]; for ABSOLUTE BASOPHIL / ABSOLUTE EOSINOPHIL / ABSOLUTE LYMPHOCYTE / ABSOLUTE MONOCYTE / ABSOLUTE SEGMENTED NEUTROPHIL / BASOPHIL / EOSINOPHIL / ERYTHROCYTE COUNT / HEMATOCRIT / HEMOGLOBIN / LEUKOCYTE COUNT / LYMPHOCYTE / MEAN CORPUSCULAR HEMOGLOBIN / MEAN CORPUSCULAR HEMOGLOBIN CONCENTRATION / MEAN CORPUSCULAR VOLUME / MONOCYTE / NEUTROPHIL / NUCLEATED RED BLOOD CELLS / PLATELET COUNT: tissue Blood; for ALANINE AMINOTRANSFERASE / ALBUMIN / ALKALINE PHOSPHATASE / ASPARTATE AMINOTRANSFERASE / BLOOD UREA NITROGEN / CARBON DIOXIDE / CHLORIDE / CHOLESTEROL / CREATINE PHOSPHOKINASE / CREATININE / GLUCOSE / LACTATE DEHYDROGENASE / LIPASE / PHOSPHORUS / POTASSIUM / SODIUM / TOTAL BILIRUBIN / TOTAL PROTEIN / URIC ACID: tissue Plasma
# [1] = 0 mg/kg, 72 h, dose level Control, time 3 day
# [2] = 0 mg/kg, 120 h, dose level Control, time 5 day
# [3] = 56 mg/kg, 72 h, dose level High, time 3 day
compound,measurement,setting,value
C[C@]12CCC(=O)C=C1CC[C@@H]1[C@@H]2[C@@H](O)C[C@@]2(C)[C@H]1CC[C@]2(O)C(=O)CO [HYDROCORTISONE],ABSOLUTE BASOPHIL,[1],0 CELLS/uL
same,ABSOLUTE EOSINOPHIL,[1],0 CELLS/uL
same,ABSOLUTE LYMPHOCYTE,[1],10887 CELLS/uL
same,ABSOLUTE MONOCYTE,[1],56 CELLS/uL
same,ABSOLUTE SEGMENTED NEUTROPHIL,[1],1057 CELLS/uL
same,BASOPHIL,[1],0%
same,EOSINOPHIL,[1],0%
same,ERYTHROCYTE COUNT,[1],5.31 x10E6/uL
same,HEMATOCRIT,[1],33.78%
same,HEMOGLOBIN,[1],13.4 G/DL
same,LEUKOCYTE COUNT,[1],12 x10E3/uL
same,LYMPHOCYTE,[1],91.17%
same,MEAN CORPUSCULAR HEMOGLOBIN,[1],25.25 pg
same,MEAN CORPUSCULAR HEMOGLOBIN CONCENTRATION,[1],39.65 G/DL
same,MEAN CORPUSCULAR VOLUME,[1],63.65 fL
same,MONOCYTE,[1],0.5%
same,NEUTROPHIL,[1],8.33%
same,NUCLEATED RED BLOOD CELLS,[1],0 /100WBC
same,PLATELET COUNT,[1],1142 x10E3/uL
same,ALANINE AMINOTRANSFERASE,[1],57.17 u/L
same,ALBUMIN,[1],4.28 G/DL
same,ALKALINE PHOSPHATASE,[1],425.83 u/L
same,ASPARTATE AMINOTRANSFERASE,[1],93.83 u/L
same,BLOOD UREA NITROGEN,[1],14.17 mg/dL
same,CARBON DIOXIDE,[1],33.5 mmol/L
same,CHLORIDE,[1],100 MEQ/L
same,CHOLESTEROL,[1],70.33 mg/dL
same,CREATINE PHOSPHOKINASE,[1],438.67 u/L
same,CREATININE,[1],0.19 mg/dL
same,GLUCOSE,[1],138.5 mg/dL
same,LACTATE DEHYDROGENASE,[1],190.17 u/L
same,LIPASE,[1],9.83 u/L
same,PHOSPHORUS,[1],11.05 mg/dL
same,POTASSIUM,[1],6.59 MEQ/L
same,SODIUM,[1],143.58 MEQ/L
same,TOTAL BILIRUBIN,[1],0.22 mg/dL
same,TOTAL PROTEIN,[1],6.15 G/DL
same,URIC ACID,[1],1.3 mg/dL
same,ABSOLUTE BASOPHIL,[2],0 CELLS/uL
same,ABSOLUTE EOSINOPHIL,[2],91.17 CELLS/uL
same,ABSOLUTE LYMPHOCYTE,[2],11847.67 CELLS/uL
same,ABSOLUTE MONOCYTE,[2],172.83 CELLS/uL
same,ABSOLUTE SEGMENTED NEUTROPHIL,[2],1105 CELLS/uL
same,BASOPHIL,[2],0%
same,EOSINOPHIL,[2],0.67%
same,ERYTHROCYTE COUNT,[2],5.35 x10E6/uL
same,HEMATOCRIT,[2],33.65%
same,HEMOGLOBIN,[2],13.42 G/DL
same,LEUKOCYTE COUNT,[2],13.22 x10E3/uL
same,LYMPHOCYTE,[2],89.83%
same,MEAN CORPUSCULAR HEMOGLOBIN,[2],25.12 pg
same,MEAN CORPUSCULAR HEMOGLOBIN CONCENTRATION,[2],39.9 G/DL
same,MEAN CORPUSCULAR VOLUME,[2],63 fL
same,MONOCYTE,[2],1.33%
same,NEUTROPHIL,[2],8.17%
same,NUCLEATED RED BLOOD CELLS,[2],0 /100WBC
same,PLATELET COUNT,[2],1347.83 x10E3/uL
same,ALANINE AMINOTRANSFERASE,[2],50 u/L
same,ALBUMIN,[2],4.1 G/DL
same,ALKALINE PHOSPHATASE,[2],329.17 u/L
same,ASPARTATE AMINOTRANSFERASE,[2],77.17 u/L
same,BLOOD UREA NITROGEN,[2],16.83 mg/dL
same,CARBON DIOXIDE,[2],34.83 mmol/L
same,CHLORIDE,[2],99.83 MEQ/L
same,CHOLESTEROL,[2],75.67 mg/dL
same,CREATINE PHOSPHOKINASE,[2],295.83 u/L
same,CREATININE,[2],0.18 mg/dL
same,GLUCOSE,[2],156.33 mg/dL
same,LACTATE DEHYDROGENASE,[2],166.83 u/L
same,LIPASE,[2],9.83 u/L
same,PHOSPHORUS,[2],12.18 mg/dL
same,POTASSIUM,[2],6.69 MEQ/L
same,SODIUM,[2],143.97 MEQ/L
same,TOTAL BILIRUBIN,[2],0.22 mg/dL
same,TOTAL PROTEIN,[2],6.05 G/DL
same,URIC ACID,[2],1.6 mg/dL
same,ABSOLUTE BASOPHIL,[3],0 CELLS/uL
same,ABSOLUTE EOSINOPHIL,[3],0 CELLS/uL
same,ABSOLUTE LYMPHOCYTE,[3],1706 CELLS/uL
same,ABSOLUTE MONOCYTE,[3],103.33 CELLS/uL
same,ABSOLUTE SEGMENTED NEUTROPHIL,[3],3357.33 CELLS/uL
same,BASOPHIL,[3],0%
same,EOSINOPHIL,[3],0%
same,ERYTHROCYTE COUNT,[3],5.79 x10E6/uL
same,HEMATOCRIT,[3],37.97%
same,HEMOGLOBIN,[3],14.73 G/DL
same,LEUKOCYTE COUNT,[3],5.17 x10E3/uL
same,LYMPHOCYTE,[3],33.33%
same,MEAN CORPUSCULAR HEMOGLOBIN,[3],25.47 pg
same,MEAN CORPUSCULAR HEMOGLOBIN CONCENTRATION,[3],38.87 G/DL
same,MEAN CORPUSCULAR VOLUME,[3],65.57 fL
same,MONOCYTE,[3],2%
same,NEUTROPHIL,[3],64.67%
same,NUCLEATED RED BLOOD CELLS,[3],0.33 /100WBC
same,PLATELET COUNT,[3],1157.67 x10E3/uL
same,ALANINE AMINOTRANSFERASE,[3],124.33 u/L
same,ALBUMIN,[3],5.07 G/DL
same,ALKALINE PHOSPHATASE,[3],509.67 u/L
same,ASPARTATE AMINOTRANSFERASE,[3],177.33 u/L
same,BLOOD UREA NITROGEN,[3],13.67 mg/dL
same,CARBON DIOXIDE,[3],29 mmol/L
same,CHLORIDE,[3],99 MEQ/L
same,CHOLESTEROL,[3],119.33 mg/dL
same,CREATINE PHOSPHOKINASE,[3],250.33 u/L
same,CREATININE,[3],0.17 mg/dL
same,GLUCOSE,[3],360 mg/dL
same,LACTATE DEHYDROGENASE,[3],443.67 u/L
same,LIPASE,[3],10.67 u/L
same,PHOSPHORUS,[3],10.63 mg/dL
same,POTASSIUM,[3],5.68 MEQ/L
same,SODIUM,[3],144.93 MEQ/L
same,TOTAL BILIRUBIN,[3],0.17 mg/dL
same,TOTAL PROTEIN,[3],6.97 G/DL
same,URIC ACID,[3],1.43 mg/dL
